The test system of one assay is growth hormone release. Briefly: Peptide effects on growth hormone release in the pentobarbital-anesthetized rat (plasma GH by RIA). The assay is classed as in vivo. The protocol:
In this evaluation, the procedures described by W. A. Murphy et al., Endocrinology 109: 491-495 (1980), were employed.
In growth hormone (GH) experiments, male rats (Charles Rivers) were anesthetized with NEMBUTAL® (6 mg per 100 g body weight) which also served to maintain stimulated plasma GH levels. Exactly 30 minutes after the rats were anesthetized, 0.5 mL of saline or the test peptide in saline was administered as a SC bolus. A 1 mL blood sample was drawn from the jugular vein 15 minutes after the injection of the peptide in saline or at the indicated times in the time course assay (p26). GH levels were determined using NIADDKD rat GH RIA components.

The next assay concerns plasma growth hormone. The experiment in a line: Evaluation of peptides in vivo in sheep: plasma GH levels in lambs injected intravenously at 100 ng/kg. As to conditions: for Plasma GH Peak / Plasma GH Post-inj Mean: 100 ng/kg IV; for Plasma GH Peak: control 12.2; for Plasma GH Post-inj Mean: two hours after treatment, means of 8 samples/animal from 8 animals, control 8.7; for Plasma GH Pre-inj Mean: before IV injection of 100 ng/kg, means of 5 samples/animal from 8 animals, control 8.4. As to the method: The purpose of this experiment is to compare the GH releasing activities of several GRF analogs selected for expected high potency and the lack of either a terminal amide or a D-amino acid. The analogs to be compared in wether lambs at 100 ng/kg (IV) are tri-isopropyl-GRF(1-29)-NH2, tri-isopropyl-GRF(1-29)-OH, tri-isopropyl-GRF(1-40)OH, D-ala^2, arg^12,21 -GRF (1-29)-OH, D-ala^2, arg^12,21 -GRF(1-29)-NH2, GRF(1-40)-OH and GRF(1-29)-NH2
A balanced 8×8 Latin square design will be used to test the following 8 treatments:
Sheep are maintained in individual metabolism cages at all times. Each sheep has previously received an indwelling jugular cannula which is flushed daily with heparinized (400-800 IU/ml) sterile saline to help maintain […].
All compounds are solubilized at 5 ug/ml in sterile saline containing 1% Tween 80 and injected intravenously at 100 ng/kg. Control lambs receive equal volumes of the vehicle only. The drugs are prepared each day just prior to injection to minimize sticking to the vials.
Blood is collected in heparinized tubes at 15 minute intervals for one hour prior to and for two hours after the treatments are administered. Plasma samples are removed by centrifugation and frozen.
Blood samples are taken from each animal at 15 minute intervals for 3 hours each day during the 8 day trial period. The samples are analyzed for plasma growth hormone (ng/ml). Data obtained are reported below as near values obtained for each treatment.

Where no end group is shown, it is not given here.

With “[N^α -Isopropyl-Tyr^1 ]GRF(1-29)NH2 [N^α iPrTyr^1]”, the “PLASMA GH” value in the assay with growth hormone release (dose 0.2 ug/100 g BW SC, 15 min, saline control 325 ± 52) stood at 1334 ± 394 ng/mL; with growth hormone release (dose 2 ug/100 g BW SC, 15 min, saline control 325 ± 52) it was 3250 ± 362 ng/mL; in the assay on growth hormone release (dose 20 ug/100 g BW SC, 15 min, saline control 325 ± 52) it was 3290 ± 241 ng/mL. The POTENCY in the assay on growth hormone release (relative to GRF(1-29)NH2 (=1), estimated by single dose comparisons to pooled standard responses) is ~ 60.

Consider “GRF(1-40)-OH (YADAIFTNSYRKVLGQLSARKLLQDIMSRQQGESNQERGA-OH; UniProt P01286 32-71, looked up, fragment) [unalkylated human GRF(1-40) free acid, comparator in the sheep test, reference compound]”, for which, in the assay on plasma growth hormone, the “Plasma GH Peak” value was determined as 92.3 ng/mL, the “Plasma GH Post-inj Mean” value was 25.5 ng/mL and the “Plasma GH Pre-inj Mean” value was 9.4 ng/mL.

Regarding `CC[C@H](C)[C@H](NC(=O)[C@H](C)NC(=O)[C@H](CC(=O)O)NC(=O)[C@H](C)NC(=O)[C@H](Cc1ccc(O)cc1)NC)C(=O)N[C@@H](Cc1ccccc1)C(=O)N[C@H](C(=O)N[C@@H](CC(N)=O)C(=O)N[C@@H](CO)C(=O)N[C@@H](Cc1ccc(O)cc1)C(=O)N[C@@H](CCCNC(=N)N)C(=O)N[C@@H](CCCCN)C(=O)N[C@H](C(=O)N[C@@H](CC(C)C)C(=O)NCC(=O)N[C@@H](CCC(N)=O)C(=O)N[C@@H](CC(C)C)C(=O)N[C@@H](CO)C(=O)N[C@@H](C)C(=O)N[C@@H](CCCNC(=N)N)C(=O)N[C@@H](CCCCN)C(=O)N[C@@H](CC(C)C)C(=O)N[C@@H](CC(C)C)C(=O)N[C@@H](CCC(N)=O)C(=O)N[C@@H](CC(=O)O)C(=O)N[C@H](C(=O)N[C@@H](CCSC)C(=O)N[C@@H](CO)C(=O)N[C@@H](CCCNC(=N)N)C(N)=O)[C@@H](C)CC)C(C)C)[C@@H](C)O` [N^α MeTry^1, [N α-MeTyr^1]hpGRF(1-29)-NH2, reference compound], the “PLASMA GH” value amounted to 1843 ± 196 ng/mL in the assay with growth hormone release (dose 30 ug/100 g BW SC, blood 15 min after injection, saline control 243 ± 25) and 2613 ± 418 ng/mL with growth hormone release (dose 75 ug/100 g BW SC, blood 15 min after injection, saline control 243 ± 25). Further, the POTENCY in the assay with growth hormone release (relative to GRF(1-29)NH2 (=1) as standard, by 4point assay (95% CI limits in parentheses)) is 0.42.

“[N ^α -Isopropyl-Tyr^1, N ^ε -isopropyl-Lys^12,21 ]GRF(1-40)OH [tri-isopropyl-GRF(1-40)-OH]”: in the assay with plasma growth hormone, the “Plasma GH Peak” value worked out at 108.6 ng/mL, the “Plasma GH Post-inj Mean” value was determined as 34.0 ng/mL and the “Plasma GH Pre-inj Mean” value is 9.5 ng/mL.

The values are drawn from patent US5112808A, “Alkylated hormone-releasing peptides and method of treatig mammals therewith” (American Cyanamid Company, priority 1988, dated 1992).
